The source of these data is patent US20260142006A1, “APPARATUS AND METHODS FOR DETERMINING SENSITIVITY TO OSIMERTINIB” (Zephyr AI, Inc., priority 2022, published 2026).

SMILES strings stand for the structures.

One assay concerns cancer cell lines. Briefly: area under the drug response curve (AUC) of cancer cell lines exposed to osimertinib. It counts as cell-based. The conditions noted are these: AUC of 1 = growth equal to growth without osimertinib. From the text: FIG. 4D depicts a boxplot of area under the drug response curve values for cell lines partitioned into a first group (sensitive) and the second group (non-sensitive) of cancer cell lines, by a machine learning model disclosed herein.
FIG. 4D depicts a graph of a box and whisker plot of area under the drug response curve (AUC) values for the first group (sensitive) and the second group (non-sensitive) of cancer cell lines. […] Furthermore, instead of generating the machine learning model wherein the model learns a point estimate for each of the parameters of the partitioning matrix (e.g., two or more genes), the machine learning model may be generated in a Bayesian context, wherein the machine learning model learns the posterior parameter distribution for the parameters of the partitioning matrix, the posterior parameter distribution may be approximately gaussian. For example, when the parameters of the partitioning matrix include 7 distinct genes, the machine learning model may learn the posterior parameter distribution for 8 different parameters (e.g., 7 genes plus an intercept term). In some embodiments, the posterior parameter distribution may have a confidence region of about 90%. The graphical representation of the confidence region of the posterior parameter distribution may depict ellipse enclosing a high-density region.

Another assay relates to NSCLC. Briefly: overall survival of osimertinib-treated NSCLC patients (AACR Project GENIE cohort), predicted sensitive vs. less sensitive. It counts as in vivo, human. The conditions noted are these: 334 osimertinib-treated patients. The text has this: FIG. 8 depicts a Kaplan-Meier plot showing corresponding overall survival (OS) measurements of patients predicted, according to methods of the present disclosure, to be sensitive vs. insensitive to ismertinib. NSCLC patients predicted to be sensitive experienced a 35-month increased median OS than the predicted less sensitive group (log-rank test p-value<10-5; HR=1.57 (1.43-1.78, 95% CI)).
A clinicogenomics cohort from AACR Project GENIE, which included 334 patients treated with osimertinib, was used to validate the predictive ability of the methods disclosed herein. Data obtained in real-world settings were used to assign drug sensitivity predictions to individual patients in a RWD cohort of NSCLC patients treated with osimertinib. FIG. 8, a Kaplan-Meier plot, depicts overall survival (OS) measurements corresponding to patients predicted to be sensitive vs. insensitive. NSCLC patients predicted to be sensitive experienced a 35-month increased median OS than the NSCLC patients predicted to be less sensitive (log-rank test p-value<10-5; HR=1.57 (1.43-1.78, 95% CI)).

In the next assay the test system is NSCLC tumor PDX models. Briefly: tumor response (mRECIST) of treatment-naïve NSCLC patient-derived xenograft (PDX) models in mice. The conditions noted are these: 25 mg/kg/day for 3 weeks, NOD/SCID or BALB/c nude mice. It counts as in vivo. The text has this:
FIG. 9 depicts a method for further validation of sensitivity predictions using patient-dervied xenograft (PDX) models (HuBase™, CrownBio®). Treatment naïve PDX tumors were subcutaneously implanted into female non-obese diabetic/severe combined immunodeficient (NOD/SCID) or BALB/c nude mice in triplicate for a total of 96 mice (n=48 treated; 48 vehicle-treated controls). Mice were assigned labels. After implanted tumors reached a size of 200 mm^3, mice were randomized into treatment and control groups. Treated mice were dosed with 25 mg/kg/day of osimertinib for 3 weeks. Changes in tumor volume were calculated. For each PDX model, tumor growth for treatment groups and control groups was assessed.
To validate the predictions of tumor sensitivity/insensitivity, as described above, data were acquired using treatment-naïve NSCLC tumor (patient-derived xenograft) PDX models available via HuBase™ (CrownBio®, an online database offering complete genomic annotation of the PDX models).
The current FDA label for osimertinib (FIG. 7) was used to assign PDX tumors to “FDA ON” or “FDA OFF” label groups based on the presence or absence of DNA alterations indicated for this drug (i.e., L858R mutation, T790M mutation, or exon 19 deletion). PDX tumors were also assigned label groups based on sensitivity predictions, as described above. Tumors labeled “Zephyr ON” included those that were predicted to be osimertinib-sensitive and samples labeled “Zephyr OFF” include those predicted to be osimertinib-insensitive. PDX models were then divided into four cohorts: FDA ON/ZEPHYR ON; FDA OFF/ZEPHYR ON; FDA ON/ZEPHYR OFF; and FDA OFF/ZEPHYR OFF.
Treatment naïve PDX tumors were subcutaneously implanted into female NOD/SCID or BALB/c nude mice in triplicate for a total of 96 mice (n=48 treated; 48 vehicle-treated controls). After implanted tumors reached a size of 200 mm^3, mice were randomized into treatment and control groups. Treated mice were dosed with 25 mg/kg/day of osimertinib for 3 weeks. Changes in tumor volume were calculated as previously described, e.g., in Gao et al., Nat. Med. 21, 1318-1325 (2015). For each PDX model, tumor growth for treatment groups and control groups (vehicle only) was assessed.
This final cohort represents an expansion of the patient population that can be successfully treated with osimertinib that is not captured by the existing FDA label.
On the technique in general: A xenograft is tissue or cells of one species grown in another, often human tumour cells in immunodeficient mice.

In the case of `C=CC(=O)Nc1cc(Nc2nccc(-c3cn(C)c4ccccc34)n2)c(OC)cc1N(C)CCN(C)C` [osimertinib], the “average AUC (area under the drug response curve)” value is reported as “about 0.9” with cancer cell lines (first group (predicted sensitive) of cancer cell lines) and “about 0.95” in the assay with cancer cell lines (second group (predicted non-sensitive) of cancer cell lines). Also, the “increase in median overall survival (OS), predicted sensitive vs. predicted less sensitive” value in the assay on NSCLC (real-world data, log-rank test p-value<10-5) is 35 month. In addition, the “hazard ratio (HR) for overall survival” value in the assay with NSCLC (95% CI in brackets) is listed as 1.57 (1.43-1.78, 95% CI). In addition, the “tumor response by mRECIST” value was “disease progression” in the assay with NSCLC tumor PDX models (FDA OFF/ZEPHYR OFF cohort); “partial to complete response” in the assay on NSCLC tumor PDX models (FDA OFF/ZEPHYR ON cohort (no on-label EGFR alteration, predicted sensitive)); “a mix of complete responses and disease progression” in the assay on NSCLC tumor PDX models (FDA ON/ZEPHYR OFF cohort); “complete response” with NSCLC tumor PDX models (FDA ON/ZEPHYR ON cohort).
